According to PubChem BioAssay (NCI):
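Growth conditions: 96-well plates. Treatment: test compound, 48 hours, 5 concentrations. Analysis: linear interpolation between bracketing concentrations; unreached endpoints set to highest concentration. At the GI50, growth is halved. TGI denotes the concentration required for complete inhibition of growth.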

Assays:
Assay in all cases: NCI anticancer screen, dose series, 48 h
IGROV1 ovarian = system: IGROV1 ovarian
OVCAR-8 ovarian = system: OVCAR-8 ovarian
PC-3 prostate = system: PC-3 prostate
MDA-MB-231 breast = system: MDA-MB-231 breast
A549 NSCLC = system: A549 NSCLC
786-0 renal = system: 786-0 renal
MDA-MB-435 = system: MDA-MB-435
OVCAR-4 ovarian = system: OVCAR-4 ovarian
SR leukemia = system: SR leukemia
HOP-92 NSCLC = system: HOP-92 NSCLC
RPMI-8226 leukemia = system: RPMI-8226 leukemia
SF-268 CNS = system: SF-268 CNS
TK-10 renal = system: TK-10 renal
K-562 leukemia = system: K-562 leukemia
MALME-3M melanoma = system: MALME-3M melanoma
HT29 colon = system: HT29 colon
HL-60(TB) leukemia = system: HL-60(TB) leukemia
LOX IMVI melanoma = system: LOX IMVI melanoma
A498 renal = system: A498 renal
UACC-62 melanoma = system: UACC-62 melanoma
COLO 205 colon = system: COLO 205 colon
NCI-H23 lung = system: NCI-H23 lung
NCI-H522 lung = system: NCI-H522 lung
UACC-257 melanoma = system: UACC-257 melanoma
KM12 colon = system: KM12 colon
UO-31 renal = system: UO-31 renal
NCI-H226 lung = system: NCI-H226 lung
HCT-15 colon = system: HCT-15 colon
BT-549 breast = system: BT-549 breast
HCC-2998 colon = system: HCC-2998 colon
CAKI-1 renal = system: CAKI-1 renal
SW-620 colon = system: SW-620 colon
SF-539 CNS = system: SF-539 CNS
U251 CNS = system: U251 CNS
SF-295 CNS = system: SF-295 CNS
RXF 393 renal = system: RXF 393 renal
ACHN renal = system: ACHN renal
HOP-62 NSCLC = system: HOP-62 NSCLC
CCRF-CEM leukemia = system: CCRF-CEM leukemia
SNB-19 CNS = system: SNB-19 CNS
M14 melanoma = system: M14 melanoma
SK-MEL-2 melanoma = system: SK-MEL-2 melanoma
T-47D breast = system: T-47D breast
SK-OV-3 ovarian = system: SK-OV-3 ovarian
DU-145 prostate = system: DU-145 prostate
MOLT-4 leukemia = system: MOLT-4 leukemia
EKVX NSCLC = system: EKVX NSCLC
SN12C renal = system: SN12C renal
HCT-116 colon = system: HCT-116 colon
SNB-75 CNS = system: SNB-75 CNS
NCI-H460 lung = system: NCI-H460 lung
SK-MEL-5 melanoma = system: SK-MEL-5 melanoma
HS 578T breast = system: HS 578T breast
OVCAR-3 ovarian = system: OVCAR-3 ovarian
MCF7 breast = system: MCF7 breast
SK-MEL-28 melanoma = system: SK-MEL-28 melanoma
OVCAR-5 ovarian = system: OVCAR-5 ovarian
NCI/ADR-RES ovarian = system: NCI/ADR-RES ovarian

Question: How did the GI50 (IGROV1 ovarian) turn out when `Cc1ccncc1N1CCN(c2ccnc(Cl)c2)C1=O` was run?
Answer: > 100 µM

Question: What about the TGI (IGROV1 ovarian) of the same compound?
Answer: > 100 µM

Question: What about the GI50 (OVCAR-8 ovarian) of the same compound?
Answer: > 100 µM

Question: What about the TGI (OVCAR-8 ovarian) of the same compound?
Answer: > 100 µM

Question: What about the GI50 (PC-3 prostate) of the same compound?
Answer: > 100 µM

Question: And the TGI (PC-3 prostate)?
Answer: > 100 µM

Question: And the GI50 (MDA-MB-231 breast)?
Answer: > 100 µM

Question: And the TGI (MDA-MB-231 breast)?
Answer: > 100 µM

Question: And the GI50 (A549 NSCLC)?
Answer: > 100 µM

Question: And the TGI (A549 NSCLC)?
Answer: > 100 µM

Question: And the GI50 (786-0 renal)?
Answer: > 100 µM

Question: What about the TGI (786-0 renal) of the same compound?
Answer: > 100 µM

Question: What about the GI50 (MDA-MB-435) of the same compound?
Answer: > 100 µM

Question: And the TGI (MDA-MB-435)?
Answer: > 100 µM

Question: What about the GI50 (OVCAR-4 ovarian) of the same compound?
Answer: > 100 µM

Question: What about the TGI (OVCAR-4 ovarian) of the same compound?
Answer: > 100 µM

Question: What about the GI50 (SR leukemia) of the same compound?
Answer: > 100 µM

Question: And the TGI (SR leukemia)?
Answer: > 100 µM

Question: And the GI50 (HOP-92 NSCLC)?
Answer: > 100 µM

Question: And the TGI (HOP-92 NSCLC)?
Answer: > 100 µM

Question: What about the GI50 (RPMI-8226 leukemia) of the same compound?
Answer: > 100 µM

Question: And the TGI (RPMI-8226 leukemia)?
Answer: > 100 µM

Question: What about the GI50 (SF-268 CNS) of the same compound?
Answer: > 100 µM

Question: What about the TGI (SF-268 CNS) of the same compound?
Answer: > 100 µM

Question: And the GI50 (TK-10 renal)?
Answer: > 100 µM

Question: And the TGI (TK-10 renal)?
Answer: > 100 µM

Question: What about the GI50 (K-562 leukemia) of the same compound?
Answer: > 100 µM

Question: And the TGI (K-562 leukemia)?
Answer: > 100 µM

Question: What about the GI50 (MALME-3M melanoma) of the same compound?
Answer: > 100 µM

Question: And the TGI (MALME-3M melanoma)?
Answer: > 100 µM

Question: What about the GI50 (HT29 colon) of the same compound?
Answer: > 100 µM

Question: What about the TGI (HT29 colon) of the same compound?
Answer: > 100 µM

Question: What about the GI50 (HL-60(TB) leukemia) of the same compound?
Answer: > 100 µM

Question: What about the TGI (HL-60(TB) leukemia) of the same compound?
Answer: > 100 µM

Question: And the GI50 (LOX IMVI melanoma)?
Answer: > 100 µM

Question: What about the TGI (LOX IMVI melanoma) of the same compound?
Answer: > 100 µM

Question: And the GI50 (A498 renal)?
Answer: > 100 µM

Question: What about the TGI (A498 renal) of the same compound?
Answer: > 100 µM

Question: And the GI50 (UACC-62 melanoma)?
Answer: > 100 µM

Question: And the TGI (UACC-62 melanoma)?
Answer: > 100 µM

Question: And the GI50 (COLO 205 colon)?
Answer: > 100 µM

Question: And the TGI (COLO 205 colon)?
Answer: > 100 µM

Question: And the GI50 (NCI-H23 lung)?
Answer: > 100 µM

Question: And the TGI (NCI-H23 lung)?
Answer: > 100 µM

Question: What about the GI50 (NCI-H522 lung) of the same compound?
Answer: > 100 µM

Question: What about the TGI (NCI-H522 lung) of the same compound?
Answer: > 100 µM

Question: And the GI50 (UACC-257 melanoma)?
Answer: > 100 µM

Question: What about the TGI (UACC-257 melanoma) of the same compound?
Answer: > 100 µM

Question: And the GI50 (KM12 colon)?
Answer: > 100 µM

Question: And the TGI (KM12 colon)?
Answer: > 100 µM

Question: What about the GI50 (UO-31 renal) of the same compound?
Answer: > 100 µM

Question: And the TGI (UO-31 renal)?
Answer: > 100 µM

Question: And the GI50 (NCI-H226 lung)?
Answer: > 100 µM

Question: What about the TGI (NCI-H226 lung) of the same compound?
Answer: > 100 µM

Question: And the GI50 (HCT-15 colon)?
Answer: > 100 µM

Question: What about the TGI (HCT-15 colon) of the same compound?
Answer: > 100 µM

Question: What about the GI50 (BT-549 breast) of the same compound?
Answer: > 100 µM

Question: What about the TGI (BT-549 breast) of the same compound?
Answer: > 100 µM

Question: What about the GI50 (HCC-2998 colon) of the same compound?
Answer: > 100 µM

Question: And the TGI (HCC-2998 colon)?
Answer: > 100 µM

Question: And the GI50 (CAKI-1 renal)?
Answer: > 100 µM

Question: And the TGI (CAKI-1 renal)?
Answer: > 100 µM

Question: And the GI50 (SW-620 colon)?
Answer: > 100 µM

Question: And the TGI (SW-620 colon)?
Answer: > 100 µM

Question: What about the GI50 (SF-539 CNS) of the same compound?
Answer: > 100 µM

Question: What about the TGI (SF-539 CNS) of the same compound?
Answer: > 100 µM

Question: And the GI50 (U251 CNS)?
Answer: > 100 µM

Question: And the TGI (U251 CNS)?
Answer: > 100 µM

Question: What about the GI50 (SF-295 CNS) of the same compound?
Answer: > 100 µM

Question: What about the TGI (SF-295 CNS) of the same compound?
Answer: > 100 µM

Question: And the GI50 (RXF 393 renal)?
Answer: > 100 µM

Question: What about the TGI (RXF 393 renal) of the same compound?
Answer: > 100 µM

Question: And the GI50 (ACHN renal)?
Answer: > 100 µM

Question: And the TGI (ACHN renal)?
Answer: > 100 µM

Question: And the GI50 (HOP-62 NSCLC)?
Answer: > 100 µM

Question: What about the TGI (HOP-62 NSCLC) of the same compound?
Answer: > 100 µM

Question: What about the GI50 (CCRF-CEM leukemia) of the same compound?
Answer: > 100 µM

Question: What about the TGI (CCRF-CEM leukemia) of the same compound?
Answer: > 100 µM

Question: What about the GI50 (SNB-19 CNS) of the same compound?
Answer: > 100 µM

Question: What about the TGI (SNB-19 CNS) of the same compound?
Answer: > 100 µM

Question: What about the GI50 (M14 melanoma) of the same compound?
Answer: > 100 µM

Question: And the TGI (M14 melanoma)?
Answer: > 100 µM

Question: What about the GI50 (SK-MEL-2 melanoma) of the same compound?
Answer: > 100 µM

Question: What about the TGI (SK-MEL-2 melanoma) of the same compound?
Answer: > 100 µM

Question: And the GI50 (T-47D breast)?
Answer: > 100 µM

Question: And the TGI (T-47D breast)?
Answer: > 100 µM

Question: And the GI50 (SK-OV-3 ovarian)?
Answer: > 100 µM

Question: And the TGI (SK-OV-3 ovarian)?
Answer: > 100 µM

Question: What about the GI50 (DU-145 prostate) of the same compound?
Answer: > 100 µM

Question: And the TGI (DU-145 prostate)?
Answer: > 100 µM

Question: What about the GI50 (MOLT-4 leukemia) of the same compound?
Answer: > 100 µM

Question: And the TGI (MOLT-4 leukemia)?
Answer: > 100 µM

Question: And the GI50 (EKVX NSCLC)?
Answer: > 100 µM

Question: And the TGI (EKVX NSCLC)?
Answer: > 100 µM

Question: What about the GI50 (SN12C renal) of the same compound?
Answer: > 100 µM

Question: And the TGI (SN12C renal)?
Answer: > 100 µM

Question: What about the GI50 (HCT-116 colon) of the same compound?
Answer: > 100 µM

Question: What about the TGI (HCT-116 colon) of the same compound?
Answer: > 100 µM

Question: What about the GI50 (SNB-75 CNS) of the same compound?
Answer: > 100 µM

Question: What about the TGI (SNB-75 CNS) of the same compound?
Answer: > 100 µM

Question: What about the GI50 (NCI-H460 lung) of the same compound?
Answer: > 100 µM

Question: What about the TGI (NCI-H460 lung) of the same compound?
Answer: > 100 µM

Question: What about the GI50 (SK-MEL-5 melanoma) of the same compound?
Answer: > 100 µM

Question: What about the TGI (SK-MEL-5 melanoma) of the same compound?
Answer: > 100 µM

Question: And the GI50 (HS 578T breast)?
Answer: > 100 µM

Question: And the TGI (HS 578T breast)?
Answer: > 100 µM

Question: And the GI50 (OVCAR-3 ovarian)?
Answer: > 100 µM

Question: What about the TGI (OVCAR-3 ovarian) of the same compound?
Answer: > 100 µM

Question: What about the GI50 (MCF7 breast) of the same compound?
Answer: > 100 µM

Question: What about the TGI (MCF7 breast) of the same compound?
Answer: > 100 µM

Question: And the GI50 (SK-MEL-28 melanoma)?
Answer: > 100 µM

Question: And the TGI (SK-MEL-28 melanoma)?
Answer: > 100 µM

Question: What about the GI50 (OVCAR-5 ovarian) of the same compound?
Answer: > 100 µM

Question: And the TGI (OVCAR-5 ovarian)?
Answer: > 100 µM

Question: What about the GI50 (NCI/ADR-RES ovarian) of the same compound?
Answer: > 100 µM

Question: What about the TGI (NCI/ADR-RES ovarian) of the same compound?
Answer: > 100 µM
